Laboratory results: article PMC11364775, “Ion occupancy of the selectivity filter controls opening of a cytoplasmic gate in the K2P channel TALK-2” (Nature Communications, 2024)

Biological target: T1, TALK-2 L264A mutant channels (Homo sapiens, UniProt Q96T54, L264A)
T1 sequence (Q96T54 1-332 L264A): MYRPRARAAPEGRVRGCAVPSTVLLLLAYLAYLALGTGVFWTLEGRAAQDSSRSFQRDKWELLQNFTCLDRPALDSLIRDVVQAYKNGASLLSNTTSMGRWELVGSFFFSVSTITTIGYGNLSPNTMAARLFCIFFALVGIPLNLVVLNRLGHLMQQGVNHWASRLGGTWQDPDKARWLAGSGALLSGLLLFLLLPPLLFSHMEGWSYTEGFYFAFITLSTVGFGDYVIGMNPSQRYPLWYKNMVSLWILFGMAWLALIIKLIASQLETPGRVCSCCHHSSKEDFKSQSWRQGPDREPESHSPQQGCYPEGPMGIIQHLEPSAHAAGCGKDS
Assay: Pore blocker inhibition (dose-response, residual currents) in inside-out patches at +40 mV
Format: cell-based
Set-up: expressed in transfected cells; host or cells: Xenopus laevis oocytes (cRNA injection), excised inside-out patches
Procedure: Data shown are the mean ± s.e.m and the number (n) of independent experiments and repeats of representative measurements with similar results is indicated in the figure.
Electrophysiological recordings: Excised patch measurements in inside-out configuration under voltage-clamp conditions were performed at room temperature (22 – 24 °C). Patch pipettes were made from thick-walled borosilicate glass GB 200TF-8P (Science Products, Germany), had resistances of 0.2–0.5 MΩ (tip diameter of 10 - 25 µm) and filled with a pipette solution (in mM): 120 KCl, 10 HEPES and 3.6 CaCl2 (pH 7.0 - 8.5 adjusted with KOH/HCl) or 120 KCl, 10 AMPSO and 3.6 CaCl2 (pH 9.0 - 10.5 adjusted with KOH/HCl). Intracellular bath solutions and compounds were applied to the cytoplasmic side of excised patches for the various K^+ channels via a gravity flow multi-barrel pipette system. Intracellular solution had the following composition (in mM): 120 KCl, 10 HEPES, 2 EGTA and 1 Pyrophosphate (pH adjusted with KOH/HCl). In other intracellular bath solutions, K^+ was replaced by Rb^+ (pH 7.4 adjusted with RbOH/HCl). Currents were recorded with an EPC10 amplifier (HEKA electronics, Germany) and sampled at 10 kHz or higher and filtered with 3 kHz (-3 dB) or higher as appropriate for sampling rate.
Data analysis and statistics were done using Fitmaster (HEKA electronics, version: v2x73.5, Germany), Microsoft Excel 2021 (Microsoft Corporation, USA), and Igor Pro 9 software (WaveMetrics Inc., USA). Recorded currents were analyzed from stable membrane patches at a voltage defined in the respective figure legend or with a voltage protocol as indicated in the respective figure. […] Percentage inhibition or residual currents upon blocker application for a ligand (drug or bioactive lipid) was calculated from stable currents of excised membrane patches using the following Eqs. 2 and 3:2 %inhibition=1−Iinhibited/Ibasal*100 3 Residual current=100−%inhibition where Iinhibited refers to the stable current level recorded in the presence of a given concentration of a drug or bioactive lipid and Ibasal to the measured current before ligand application.

SMILES: CCCCC[N+](CCCCC)(CCCCC)CCCCC [TPenA, Tetra-pentyl-ammonium chloride]
- IC50: 459 ± 58 µM
- Residual currents with 1 mM TPenA (TALK-2 L264A, +40 mV): 29.31%
- Normalized currents (TALK-2 L264A, 1 µM TPenA): 0.99
- Normalized currents (TALK-2 L264A, 10 µM TPenA): 0.97
- Normalized currents (TALK-2 L264A, 100 µM TPenA): 0.77
- Normalized currents (TALK-2 L264A, 1000 µM TPenA): 0.32
- Normalized currents (TALK-2 L264A, 4000 µM TPenA): 0.17
